For one series, the system named is C. tropicalis. Nature of the series: agar disc diffusion, inhibition zone. The series is classed as cell-based, Candida tropicalis. The note with it: same extract concentrations. Here is the method: (§1) M. gypseum, M. canis, C. albicans and C. tropicalis isolates were obtained from King Faisal Specialist Hospital & Research Centre-Jeddah, Saudi Arabia. They were cultured on sabaroud dextrose agar media (Oxoid CM 41) at 25° C. Antimicrobial activities of essential oils and plant extracts of Indian Costus. About 0.5 g of the testing compound was dissolved in 1.25 ml of a solvent (chloroform, ethanol and methanol) and it was cultured in sabaroud dextrose agar media and blood agar media using the agar disc diffusion method. Each media used were inoculated with 1 ml from a suspension of M. gypseum, M. canis and C. albicans for sabaroud dextrose agar and P. aeruginosa and S. aureus for blood agar. The fungi and yeast were incubated at 25° C. for 8 days, and 48 hours respectively and then tested at 37° C. for 24 hours. After that, the diameter of inhibition zones was measured in millimeters; Baker F J, Breach M R. Medical Microbiological Techniques, Butterworths 1980; Hasenekoglu H. Laboratory techniques for micro fungi. Ataturk University. Erzurum 1990 (both incorporated by reference).
Background: A growth-free zone around the sample is the usual read-out of agar diffusion tests.

The next series has as its system C. albicans. As to the kind of experiment: agar disc diffusion, inhibition zone. In kind it is cell-based, Candida albicans. The following applies: same extract concentrations. How it is done: as §1
A further series relates to M. gypseum. Nature of the series: agar disc diffusion, inhibition zone. The series is classed as cell-based, Microsporum gypseum. The following applies: diosgenin at 1.25 m. How it is done: as §1

These results are taken from patent US10195216B1, “Antimicrobial activity and oil compositions of Costus speciosus (KOEN)” (King Abdulaziz University, priority 2017, dated 2019).

For `C[C@@H]1CC[C@@]2(OC1)O[C@H]1C[C@H]3[C@@H]4CC=C5C[C@@H](O)CC[C@]5(C)[C@H]4CC[C@]3(C)[C@H]1[C@@H]2C` [Indian Costus diosgenin, (3β,25R)-spirost-5-en-3-ol], the entries for the “antimicrobial activity in words” value with C. tropicalis, in the series with C. albicans and in the series on M. gypseum were “not as effective”, “not as effective” and “effective”, respectively.

Take `CC1CC[C@@]2(OC1)O[C@H]1C[C@H]3[C@@H]4CC5OC56CCCC[C@]6(C)[C@H]4CC[C@]3(C)[C@H]1[C@@H]2C` (stereo partly shown) [diosgenin epoxide, 5,6-Epoxyspirostane]: the melting point – broadly, the temperature of the solid-liquid transition – lay within 195 to 200 °C.
